Reference: ChEMBL document CHEMBL1138214 (J Med Chem, 2006)
Active and inactive are the calls of the source. The rule behind the calls is not given here.

Columns and labels:
[1] = biological target: T1, C-X-C chemokine receptor type 2 (Homo sapiens, UniProt P25025); test: Displacement of [125I]hCXCL8 from human CXCR2 receptor expressed in BaF3 cells; format: cell-based
T1 sequence (P25025 whole entry): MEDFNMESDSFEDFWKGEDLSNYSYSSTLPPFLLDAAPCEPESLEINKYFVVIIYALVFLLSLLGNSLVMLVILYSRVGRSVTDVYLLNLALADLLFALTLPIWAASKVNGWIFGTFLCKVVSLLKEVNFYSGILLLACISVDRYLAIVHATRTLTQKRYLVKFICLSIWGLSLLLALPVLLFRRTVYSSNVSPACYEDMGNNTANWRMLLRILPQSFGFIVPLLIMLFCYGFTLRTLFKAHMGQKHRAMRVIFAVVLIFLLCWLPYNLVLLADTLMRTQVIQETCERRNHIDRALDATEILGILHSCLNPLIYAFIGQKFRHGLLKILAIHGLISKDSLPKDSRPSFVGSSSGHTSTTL

[2] = biological target: T2, C-X-C chemokine receptor type 1 (Homo sapiens, UniProt P25024); test: Displacement of [125I]hCXCL8 from human CXCR1 receptor expressed in BaF3 cells; format: cell-based
T2 sequence (P25024 whole entry): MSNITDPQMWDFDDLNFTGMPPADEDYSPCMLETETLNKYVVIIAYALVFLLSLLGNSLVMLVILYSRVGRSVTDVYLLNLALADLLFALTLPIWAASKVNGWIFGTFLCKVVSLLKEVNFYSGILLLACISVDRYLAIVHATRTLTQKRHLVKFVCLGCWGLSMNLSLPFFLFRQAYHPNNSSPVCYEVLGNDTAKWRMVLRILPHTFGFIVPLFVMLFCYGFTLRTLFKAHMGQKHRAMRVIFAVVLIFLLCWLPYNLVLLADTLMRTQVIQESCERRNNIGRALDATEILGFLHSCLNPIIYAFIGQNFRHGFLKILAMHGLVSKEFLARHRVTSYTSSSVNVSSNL

[3] = AUC (0-6h) in rat at 10 mg/kg, po; format: ADME, organism-based; parameters: time < 6 hr, dose 10 mg/kg, route oral; conditions: plasma
[4] = biological target: T3, C-X-C chemokine receptor type 1 (Homo sapiens) (UniProt P25024); test: Displacement of [125I]hCXCL8 from human CXCR1 receptor expressed in BaF3 cells at >10000 nM; format: cell-based
T3 sequence (whole entry): T2 sequence (P25024 whole entry)

[5] = biological target: T4, Interleukin-8 receptors, CXCR1/CXCR2 (Homo sapiens, UniProt P25025+P25024); test: Inhibition of CXCL8-induced human neutrophil chemotaxis; format: functional
T4 sequence (P25025 whole entry): T1 sequence (P25025 whole entry)
T4 sequence (P25024 whole entry): T2 sequence (P25024 whole entry)

[6] = biological target: Interleukin-8 receptors, CXCR1/CXCR2 (Homo sapiens) (UniProt P25025+P25024); test: Selectivity for CXCR2 over CXCR1; format: protein assay
[7] = biological target: T5, C5a anaphylatoxin chemotactic receptor 1 (Homo sapiens) (UniProt P21730); test: Inhibition of C5a-induced human neutrophil chemotaxis; format: functional
T5 sequence (whole entry): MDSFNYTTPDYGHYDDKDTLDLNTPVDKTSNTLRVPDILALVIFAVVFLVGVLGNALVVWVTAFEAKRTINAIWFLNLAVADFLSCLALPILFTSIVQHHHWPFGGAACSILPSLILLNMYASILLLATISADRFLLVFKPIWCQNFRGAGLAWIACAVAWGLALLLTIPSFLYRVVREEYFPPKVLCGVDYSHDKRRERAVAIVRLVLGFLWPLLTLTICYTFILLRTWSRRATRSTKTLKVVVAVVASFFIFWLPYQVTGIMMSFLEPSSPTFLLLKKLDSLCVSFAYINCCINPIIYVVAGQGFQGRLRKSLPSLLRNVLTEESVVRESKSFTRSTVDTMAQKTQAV

[8] = biological target: T6, C-X-C chemokine receptor type 3 (Homo sapiens) (UniProt P49682); test: Inhibition of CXCR3 receptor at 2 to 20 uM
T6 sequence (whole entry): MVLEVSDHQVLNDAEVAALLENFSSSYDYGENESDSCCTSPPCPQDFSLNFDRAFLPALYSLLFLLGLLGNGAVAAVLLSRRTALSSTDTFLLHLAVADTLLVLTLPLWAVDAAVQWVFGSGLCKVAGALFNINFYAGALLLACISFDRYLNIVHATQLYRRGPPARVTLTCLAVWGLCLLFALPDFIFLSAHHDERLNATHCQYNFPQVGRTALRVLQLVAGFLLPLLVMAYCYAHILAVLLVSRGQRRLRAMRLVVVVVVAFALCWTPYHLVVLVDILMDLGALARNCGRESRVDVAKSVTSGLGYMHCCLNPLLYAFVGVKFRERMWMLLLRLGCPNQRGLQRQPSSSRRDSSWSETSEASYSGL

[9] = biological target: C-C chemokine receptor type 5 (Homo sapiens) (UniProt P51681); test: Inhibition of CCR5 receptor at 2 to 20 uM
[10] = biological target: T7, fMet-Leu-Phe receptor (Homo sapiens) (UniProt P21462); test: Inhibition of fMLP-induced human neutrophil chemotaxis; format: functional
T7 sequence (whole entry): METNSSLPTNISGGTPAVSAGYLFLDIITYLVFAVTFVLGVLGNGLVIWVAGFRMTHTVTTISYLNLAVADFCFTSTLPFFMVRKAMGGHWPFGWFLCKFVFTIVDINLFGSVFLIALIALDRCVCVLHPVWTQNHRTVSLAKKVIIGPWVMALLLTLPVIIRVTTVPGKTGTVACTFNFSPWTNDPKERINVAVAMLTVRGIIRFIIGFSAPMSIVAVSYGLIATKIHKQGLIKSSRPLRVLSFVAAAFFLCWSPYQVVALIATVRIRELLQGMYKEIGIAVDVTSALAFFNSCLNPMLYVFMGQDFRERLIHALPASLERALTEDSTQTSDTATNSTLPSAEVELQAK

Chain of C-C chemokine receptor type 5 (Homo sapiens) (P51681 whole entry, looked up): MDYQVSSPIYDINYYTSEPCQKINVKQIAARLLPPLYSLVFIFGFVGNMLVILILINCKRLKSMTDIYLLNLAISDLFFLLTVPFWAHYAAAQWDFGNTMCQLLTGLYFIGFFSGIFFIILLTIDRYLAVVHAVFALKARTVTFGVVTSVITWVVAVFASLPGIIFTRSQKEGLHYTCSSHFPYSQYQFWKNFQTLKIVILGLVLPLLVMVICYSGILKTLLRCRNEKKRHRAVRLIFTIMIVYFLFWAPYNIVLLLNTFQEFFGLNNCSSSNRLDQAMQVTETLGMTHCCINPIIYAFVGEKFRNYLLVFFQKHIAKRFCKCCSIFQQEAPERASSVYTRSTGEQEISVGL

SMILES | IC50 [1] [nM] | IC50 [2] [nM] | AUC(0-t) at 6 h [3] [µM·h] | also measured
CC[C@@H](Nc1c(Nc2cccc(C(=O)N(C)C)c2O)c(=O)c1=O)c1ccco1 | 3.8 | 26 | 1.4 | 
CN(C)C(=O)c1cccc(Nc2c(NCc3ccccc3)c(=O)c2=O)c1O | 236 |  |  | Activity [4]: inactive
CC[C@@H](Nc1c(Nc2cccc(C(=O)N(C)C)c2O)c(=O)c1=O)c1cccc(F)c1 | 4.9 | 197 | 18.3 | 
CC[C@H](Nc1c(Nc2cccc(C(=O)N(C)C)c2O)c(=O)c1=O)c1ccccc1 | 234 |  | 1 | Activity [4]: inactive
Cc1ccc([C@@H](C)Nc2c(Nc3cccc(C(=O)N(C)C)c3O)c(=O)c2=O)o1 | 5.4 | 775 | 34 | IC50 [5]: 251 nM; Ratio IC50 [6]: > 100
CC[C@@H](Nc1c(Nc2cccc(C(=O)N(C)C)c2O)c(=O)c1=O)c1ccc(C)s1 | 5.3 | 235 | 14.1 | 
C[C@@H](Nc1c(Nc2cccc(C(=O)N(C)C)c2O)c(=O)c1=O)c1ccccc1 |  | 3060 |  | 
CC[C@@H](Nc1c(Nc2cccc(C(=O)N(C)C)c2O)c(=O)c1=O)c1ccc(C)o1 [NAVARIXIN ANHYDROUS] |  |  | 49 | Activity [7]: inactive; inhibition [8]: < 15%; inhibition [9]: < 15%; Activity [10]: inactive
Cc1ccc([C@H](Nc2c(Nc3cccc(C(=O)N(C)C)c3O)c(=O)c2=O)C(C)C)o1 | 6.2 | 34 | 3.2 | 
CC[C@@H](Nc1c(Nc2cccc(C(=O)N(C)C)c2O)c(=O)c1=O)c1cccs1 | 6 | 81 | 2.5 | 
Cc1ccc([C@H](Nc2c(Nc3cccc(C(=O)N(C)C)c3O)c(=O)c2=O)C2CC2)o1 | 3.6 | 55 | 1.4 | 
Cc1ccc([C@H](Nc2c(Nc3cccc(C(=O)N(C)C)c3O)c(=O)c2=O)C(C)(C)C)o1 | 3.8 | 11 | 2.6 | 
C[C@H](Nc1c(Nc2cccc(C(=O)N(C)C)c2O)c(=O)c1=O)c1ccccc1 |  |  |  | Activity [4]: inactive
CCC(CC)Nc1c(Nc2cccc(C(=O)N(C)C)c2O)c(=O)c1=O |  | 910 | 6.4 | 
CC[C@@H](Nc1c(Nc2cccc(C(=O)N(C)C)c2O)c(=O)c1=O)c1ccccc1 | 6.8 | 254 | 17.4 | IC50 [5]: 398 nM
CC[C@@H](Nc1c(Nc2cccc(C(=O)N(C)C)c2O)c(=O)c1=O)c1ccc2c(c1)OCO2 | 5 | 145 | 31.7 | 
